Laboratory results: the supplement of paper PMC10883282
± gives the standard deviation of the averaged measurements.

Legend:
Assay in all cases: relative viability vs DMSO control (72 h) (fraction); higher = more viable cells
[1] = tested on: G401
Method in brief: (§1)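 ATPLite readings, expressed as percent growth and averaged over up to triplicate wells, provided relative viability. Before reading, sarcoma cell lines seeded in 384-well plates to reach 80–90% confluence received 2.5 µl of serially diluted compound after 24 h, from source plates of 10 mM to 0.0002 mM. Plates were held 72 h at 37 °C, 5% CO2, with 0.1% DMSO as vehicle and a 5 µM positive control. The data were rescaled to 1 for full and 0 for none.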

[2] = tested on: KHOS-240S
Method in brief: as §1

[3] = tested on: SW684
Method in brief: as §1

[4] = tested on: SK-LMS-1
Method in brief: as §1

[5] = tested on: SW872
Method in brief: as §1

[6] = tested on: SW1353
Method in brief: as §1

[7] = tested on: SYO-1
Method in brief: as §1

[8] = tested on: HS729
Method in brief: as §1

[9] = tested on: A204
Method in brief: as §1

[10] = tested on: SK-ES-1
Method in brief: as §1

[11] = tested on: SW982
Method in brief: as §1

[12] = tested on: MES-SA
Method in brief: as §1

Cc1[nH]c(/C=C2\C(=O)Nc3ccc(F)cc32)c(C)c1C(=O)NCCN1CCCC1 [Toceranib]
Conditions | relative viability
[1], 68 pM | 0.991 ± 0.022
[1], 0.000203 µM | 0.978 ± 0.056
[1], 0.0006 µM | 0.979 ± 0.042
[1], 0.0018 µM | 0.983 ± 0.033
[1], 0.0055 µM | 0.974 ± 0.038
[1], 0.0165 µM | 0.918 ± 0.024
[1], 0.0494 µM | 0.941 ± 0.02
[1], 0.1481 µM | 0.924 ± 0.013
[1], 0.444 µM | 0.938 ± 0.045
[1], 1.333 µM | 0.912 ± 0.017
[1], 4 µM | 0.787 ± 0.03
[2], 68 pM | 1.08 ± 0.016
[2], 0.000203 µM | 1.105 ± 0.0033
[2], 0.0006 µM | 1.08 ± 0.028
[2], 0.0018 µM | 1.11 ± 0.037
[2], 0.0055 µM | 1.03 ± 0.032
[2], 0.0165 µM | 0.989 ± 0.034
[2], 0.0494 µM | 0.974 ± 0.078
[2], 0.1481 µM | 0.941 ± 0.11
[2], 0.444 µM | 0.865 ± 0.099
[2], 1.333 µM | 0.705 ± 0.066
[2], 4 µM | 0.491 ± 0.041
[3], 68 pM | 1.1 ± 0.057
[3], 0.000203 µM | 1.178 ± 0.011
[3], 0.0006 µM | 1.13 ± 0.072
[3], 0.0018 µM | 1.13 ± 0.037
[3], 0.0055 µM | 1.14 ± 0.038
[3], 0.0165 µM | 1.1 ± 0.038
[3], 0.0494 µM | 1.15 ± 0.065
[3], 0.1481 µM | 1.14 ± 0.046
[3], 0.444 µM | 1.12 ± 0.038
[3], 1.333 µM | 0.956 ± 0.039
[3], 4 µM | 0.755 ± 0.053
[4], 68 pM | 0.939 ± 0.038
[4], 0.000203 µM | 0.944 ± 0.052
[4], 0.0006 µM | 0.972 ± 0.045
[4], 0.0018 µM | 0.968 ± 0.047
[4], 0.0055 µM | 0.941 ± 0.042
[4], 0.0165 µM | 0.946 ± 0.037
[4], 0.0494 µM | 0.906 ± 0.02
[4], 0.1481 µM | 0.921 ± 0.043
[4], 0.444 µM | 0.893 ± 0.025
[4], 1.333 µM | 0.81 ± 0.012
[4], 4 µM | 0.717 ± 0.028
[5], 68 pM | 1.05 ± 0.03
[5], 0.000203 µM | 1.05 ± 0.042
[5], 0.0006 µM | 1.03 ± 0.064
[5], 0.0018 µM | 0.982 ± 0.063
[5], 0.0055 µM | 0.954 ± 0.025
[5], 0.0165 µM | 0.971 ± 0.029
[5], 0.0494 µM | 0.944 ± 0.047
[5], 0.1481 µM | 0.939 ± 0.033
[5], 0.444 µM | 0.886 ± 0.074
[5], 1.333 µM | 0.65 ± 0.044
[5], 4 µM | 0.521 ± 0.043
[6], 68 pM | 1.07 ± 0.042
[6], 0.000203 µM | 1.02 ± 0.04
[6], 0.0006 µM | 1.02 ± 0.058
[6], 0.0018 µM | 0.987 ± 0.049
[6], 0.0055 µM | 0.994 ± 0.06
[6], 0.0165 µM | 0.973 ± 0.058
[6], 0.0494 µM | 0.964 ± 0.035
[6], 0.1481 µM | 0.928 ± 0.03
[6], 0.444 µM | 0.934 ± 0.013
[6], 1.333 µM | 0.96 ± 0.036
[6], 4 µM | 0.893 ± 0.034
[7], 68 pM | 0.931 ± 0.029
[7], 0.000203 µM | 0.887 ± 0.034
[7], 0.0006 µM | 0.835 ± 0.033
[7], 0.0018 µM | 0.806 ± 0.054
[7], 0.0055 µM | 0.721 ± 0.047
[7], 0.0165 µM | 0.64 ± 0.037
[7], 0.0494 µM | 0.587 ± 0.034
[7], 0.1481 µM | 0.603 ± 0.065
[7], 0.444 µM | 0.576 ± 0.03
[7], 1.333 µM | 0.482 ± 0.024
[7], 4 µM | 0.357 ± 0.027
[8], 68 pM | 0.982 ± 0.016
[8], 0.000203 µM | 0.926 ± 0.062
[8], 0.0006 µM | 0.901 ± 0.026
[8], 0.0018 µM | 0.859 ± 0.013
[8], 0.0055 µM | 0.84 ± 0.053
[8], 0.0165 µM | 0.778 ± 0.034
[8], 0.0494 µM | 0.765 ± 0.013
[8], 0.1481 µM | 0.729 ± 0.028
[8], 0.444 µM | 0.715 ± 0.019
[8], 1.333 µM | 0.59 ± 0.017
[8], 4 µM | 0.414 ± 0.026
[9], 68 pM | 1.05 ± 0.049
[9], 0.000203 µM | 1.01 ± 0.034
[9], 0.0006 µM | 1.06 ± 0.054
[9], 0.0018 µM | 1.08 ± 0.043
[9], 0.0055 µM | 1.03 ± 0.028
[9], 0.0165 µM | 0.938 ± 0.063
[9], 0.0494 µM | 0.633 ± 0.033
[9], 0.1481 µM | 0.442 ± 0.029
[9], 0.444 µM | 0.394 ± 0.015
[9], 1.333 µM | 0.355 ± 0.03
[9], 4 µM | 0.327 ± 0.011
[10], 68 pM | 1.01 ± 0.024
[10], 0.000203 µM | 1.02 ± 0.033
[10], 0.0006 µM | 1 ± 0.022
[10], 0.0018 µM | 0.995 ± 0.071
[10], 0.0055 µM | 0.996 ± 0.052
[10], 0.0165 µM | 0.98 ± 0.05
[10], 0.0494 µM | 0.972 ± 0.026
[10], 0.1481 µM | 0.913 ± 0.065
[10], 0.444 µM | 0.802 ± 0.069
[10], 1.333 µM | 0.43 ± 0.016
[10], 4 µM | 0.165 ± 0.017
[11], 68 pM | 0.951 ± 0.061
[11], 0.000203 µM | 0.984 ± 0.036
[11], 0.0006 µM | 0.962 ± 0.048
[11], 0.0018 µM | 1.01 ± 0.054
[11], 0.0055 µM | 0.985 ± 0.061
[11], 0.0165 µM | 1 ± 0.083
[11], 0.0494 µM | 0.929 ± 0.038
[11], 0.1481 µM | 0.993 ± 0.11
[11], 0.444 µM | 0.948 ± 0.04
[11], 1.333 µM | 0.571 ± 0.018
[11], 4 µM | 0.31 ± 0.027
[12], 68 pM | 0.932 ± 0.019
[12], 0.000203 µM | 0.9214 ± 0.0054
[12], 0.0006 µM | 0.926 ± 0.021
[12], 0.0018 µM | 0.899 ± 0.018
[12], 0.0055 µM | 0.915 ± 0.028
[12], 0.0165 µM | 0.919 ± 0.044
[12], 0.0494 µM | 0.9 ± 0.032
[12], 0.1481 µM | 0.919 ± 0.021
[12], 0.444 µM | 0.884 ± 0.05
[12], 1.333 µM | 0.751 ± 0.062
[12], 4 µM | 0.44 ± 0.034
